Values quoted from earlier work, collected in patent publication US20250339362A1, “SKINCARE SUPPLEMENTS” (Natals, Inc., priority 2024, published 2025).
Where two headings read alike, the source gives them in different places.

Test system: male and female subjects ages 35-64 years
Conditions: 120 mg HA capsule orally once per day, Visioscan

hyaluronic acid [HA]
facial skin smoothness: Statistical significance compared to placebo (Week 8): No
facial skin smoothness: Statistical significance compared to placebo (Week 12): statistically significant reduction in smoothness
